Assay results from US12410160B2 (Gilead Sciences, Inc., priority 2021, dated 2025).
Where two headings read alike, the source gives them in different places.

How the values were obtained:
human KHK-C = human KHK-C (Homo sapiens (Human), UniProt P50053); experiment: KHK Biochemical Assay (IC50), ADP-Glo, KHK-C; settings: average of at least two separate assays
In short: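 His-tagged enzyme expressed in BL21 (DE3), Ni-NTA purified. Compounds, serially diluted 1:3 in DMSO, pre-incubated 30 min with enzyme in 50 mM Hepes pH 7.4, 140 mM KCl, 5 mM MgCl2, 0.01% Triton-X, then ATP and fructose added; 4 h at room temperature. ADP formation read by ADP-Glo luminescence.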

HepG2 cells = experiment: F1P Cell-Based Assay (EC50), 13C6-fructose-1-phosphate in HepG2 cells (cell culture medium or 50% human plasma); settings: Homo sapiens
Experimental: F1P Cell-Based Assay (EC50)
Compounds were serially diluted (1:3) in DMSO. The LabCyte ECHO Acoustic dispenser system was used to pre-spot the assay plates (Greiner, Catalog #781091) with 400 nL (200-fold final dilution in 80 μL assay volume) of compound. 25,000 cells/well HepG2 cells (ATCC Catalog #HB-8065) were plated in a 40 μL volume/well in DMEM medium with 4.5 g/L glucose, 1× Penicillin-Streptomycin-Glutamine, and 10% FBS, using a BioTEK dispenser in a biological hood and incubated overnight at 37° C., 5% CO2, 90% humidity. 40 μL/well serum free assay medium (for F1P assay in cell culture medium), or 40 μL/well 100% human plasma (for F1P assay in 50% human plasma) were then added to the plates on the following day, and incubated for 1 hour at 37° C., 5% CO2, 90% humidity. ^13C6-labelled fructose (Sigma, Catalog #587621) in sterile PBS was added to the plates at a final concentration of 5 mM. The plates were incubated for 2 hours at 37° C., 5% CO2, 90% humidity. The assay was quenched by washing the cells with sterile PBS and adding 60 μL/well of 80% (v/v) methanol, 2 mM ammonium acetate and 2.5 μM Crotonyl-CoA, using a BioTEK washer-dispenser system. The plates were then sealed and stored in the −80° C. freezer until ready for RapidFire readout. ^13C6-fructose-1-phosphate in individual wells was quantified using the Agilent RapidFire High-Throughput MS system in negative mode using a […]. Mobile Phase 1 consisted of 20 mM ammonium acetate with 0.05% acetic acid in 100% methanol. Mobile phase 2 consisted of 5 mM octylamine in water (pH adjusted to 5 using acetic acid). F1P signals in individual wells were normalized by crotonyl CoA internal control.

[1] = HepG2, HepG2 cells, 50% human plasma, read-out: F1P 50% HP EC50
[2] = HepG2, read-out: F1P 10% FBS EC50, HepG2 cells, cell culture medium (10% FBS)

human KHK-C, sequence (P50053 whole entry): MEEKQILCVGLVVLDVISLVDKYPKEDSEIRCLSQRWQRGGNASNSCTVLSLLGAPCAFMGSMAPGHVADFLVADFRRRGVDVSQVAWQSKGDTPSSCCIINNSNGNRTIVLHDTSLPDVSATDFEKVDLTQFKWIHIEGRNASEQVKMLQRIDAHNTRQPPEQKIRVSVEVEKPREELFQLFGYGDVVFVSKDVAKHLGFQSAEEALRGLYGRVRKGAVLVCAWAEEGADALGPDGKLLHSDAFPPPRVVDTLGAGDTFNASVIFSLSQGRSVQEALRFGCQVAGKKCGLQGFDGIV

Row | SMILES | IC50 (human KHK-C) | EC50 (HepG2 cells; [1]) | EC50 (HepG2 cells; [2]) | IC50 (human KHK-C; ADP-Glo)
1 | NC1(c2ccc(-c3nc(N4CC(F)(F)[C@@H]4CO)nc4c3CCC4(F)F)cc2)CS(=O)(=O)C1 (single isomer, unassigned) [Example 784] | 7.9 nM | 91.9 nM | 119 nM | –
2 | C[C@H]1[C@H](O)CN1c1nc(-c2cc(F)c3c(c2)OC[C@H]3NS(C)(=O)=O)c2c(n1)C(F)(F)CC2 (single isomer, unassigned) [Example 812] | – | 40.3 nM | 11.2 nM | 0.7 nM
3 | C[C@H]1[C@H](O)CN1c1nc(-c2ccc3c(c2)CC[C@H]3NS(C)(=O)=O)c2c(n1)C(F)(F)CC2 [Example 473, N—((R)-5-(7,7-difluoro-2-((2S,3R)-3-hydroxy-2-methylazetidin-1-yl)-6,7-dihydro-5H-cyclopenta[d]pyrimidin-4-yl)-2,3-dihydro-1H-inden-1-yl)methanesulfonamide] | 7.5 nM | 111 nM | 63.5 nM | –
4 | C[C@H]1[C@H](O)CN1c1nc(-c2ccc3c(c2)CCC32COC(=O)N2)c2c(n1)C(F)(F)CC2 (stereo partly drawn) [Example 474, 5-(7,7-difluoro-2-((2S,3R)-3-hydroxy-2-methylazetidin-1-yl)-6,7-dihydro-5H-cyclopenta[d]pyrimidin-4-yl)-2,3-dihydrospiro[indene-1,4′-oxazolidin]-2′-one] | 1 nM | 45.1 nM | 22.5 nM | –
5 | COc1cc(-c2nc(N3C[C@@H](O)[C@@H]3C)nc3c2CCC3(F)F)cc2c1C(NS(C)(=O)=O)CO2 (stereo partly drawn) [Example 477, N-(6-(7,7-difluoro-2-((2S,3R)-3-hydroxy-2-methylazetidin-1-yl)-6,7-dihydro-5H-cyclopenta[d]pyrimidin-4-yl)-4-methoxy-2,3-dihydrobenzofuran-3-yl)methanesulfonamide] | 0.4 nM | 25.9 nM | 6 nM | –
6 | [2H]C1([2H])[C@@H](O)[C@H](C)N1c1nc(-c2ccc3c(c2)OC[C@@H]3NS(C)(=O)=O)c2c(n1)C(F)(F)CC2 [Example 480, N—((R)-6-(7,7-difluoro-2-((2S,3R)-3-hydroxy-2-methylazetidin-1-yl-4,4-d2)-6,7-dihydro-5H-cyclopenta[d]pyrimidin-4-yl)-2,3-dihydrobenzofuran-3-yl)methanesulfonamide] | 0.6 nM | 23.7 nM | 9.4 nM | –
7 | C[C@H]1[C@H](O)CN1c1nc(-c2ccc3c(c2)OCC32COC(=O)N2)c2c(n1)C(F)(F)CC2 (stereo partly drawn) [Example 481, 6-(7,7-difluoro-2-((2S,3R)-3-hydroxy-2-methylazetidin-1-yl)-6,7-dihydro-5H-cyclopenta[d]pyrimidin-4-yl)-2H-spiro[benzofuran-3,4′-oxazolidin]-2′-one] | 0.3 nM | 43 nM | 6.6 nM | –
8 | C[C@H]1CCN1c1nc2c(c(-c3cnc(C4(N)COC4)cn3)n1)CCC2 [Example 507, (S)-3-(5-(2-(2-methylazetidin-1-yl)-6,7-dihydro-5H-cyclopenta[d]pyrimidin-4-yl)pyrazin-2-yl)oxetan-3-amine] | 73.6 nM | 247 nM | 138 nM | –
9 | CN=S(C)(=O)c1cccc(-c2nc(N3C[C@@H](O)[C@@H]3C)nc3c2CCC3(F)F)c1 (stereo partly drawn) [Example 508, (3-(7,7-difluoro-2-((2S,3R)-3-hydroxy-2-methylazetidin-1-yl)-6,7-dihydro-5H-cyclopenta[d]pyrimidin-4-yl)phenyl)(methyl)(methylimino)-λ^6-sulfanone] | 61.2 nM | 254 nM | 126 nM | –
10 | C[C@H]1[C@H](O)CN1c1nc(-c2cccc(S(C)(=O)=O)c2)c2c(n1)C(F)(F)CC2 [Example 509, (2S,3R)-1-(7,7-difluoro-4-(3-(methylsulfonyl)phenyl)-6,7-dihydro-5H-cyclopenta[d]pyrimidin-2-yl)-2-methylazetidin-3-ol] | 19.9 nM | 58.1 nM | 25.1 nM | –
11 | CCS(=N)(=O)c1cccc(-c2nc(N3C[C@@H](O)[C@@H]3C)nc3c2CCC3(F)F)c1 (stereo partly drawn) [Example 511, (3-(7,7-difluoro-2-((2S,3R)-3-hydroxy-2-methylazetidin-1-yl)-6,7-dihydro-5H-cyclopenta[d]pyrimidin-4-yl)phenyl)(ethyl)(imino)-λ^6-sulfanone] | 20.9 nM | 46.1 nM | 34.6 nM | –
12 | C[C@H]1[C@H](O)CN1c1nc(-c2ccc(C3(N)COC3)c(C(F)(F)F)c2)c2c(n1)C(F)(F)CC2 [Example 514, (2S,3R)-1-(4-(4-(3-aminooxetan-3-yl)-3-(trifluoromethyl)phenyl)-7,7-difluoro-6,7-dihydro-5H-cyclopenta[d]pyrimidin-2-yl)-2-methylazetidin-3-ol] | 10.6 nM | 72.3 nM | 41.6 nM | –
13 | C[C@H]1[C@H](O)CN1c1nc(-c2ccc(C(F)(F)CN)cc2)c2c(n1)C(F)(F)CC2 [Example 515, (2S,3R)-1-(4-(4-(2-amino-1,1-difluoroethyl)phenyl)-7,7-difluoro-6,7-dihydro-5H-cyclopenta[d]pyrimidin-2-yl)-2-methylazetidin-3-ol] | 29.7 nM | 126 nM | 59.1 nM | –
14 | C[C@@H]1N(c2nc(-c3ccc4c(c3)CCNC43COC3)c3c(n2)C(F)(F)CC3)CC1(F)F [Example 519, (S)-6-(2-(3,3-difluoro-2-methylazetidin-1-yl)-7,7-difluoro-6,7-dihydro-5H-cyclopenta[d]pyrimidin-4-yl)-3,4-dihydro-2H-spiro[isoquinoline-1,3′-oxetane]] | 2.2 nM | 23 nM | 10.1 nM | –
15 | C[C@H]1[C@H](O)CN1c1nc(-c2ccc3c(c2)C2CC(C2)NC3=O)c2c(n1)C(F)(F)CC2 [Example 520, 7-(7,7-difluoro-2-((2S,3R)-3-hydroxy-2-methylazetidin-1-yl)-6,7-dihydro-5H-cyclopenta[d]pyrimidin-4-yl)-2,3,4,5-tetrahydro-1H-3,5-methanobenzo[c]azepin-1-one] | 11.1 nM | 109 nM | 49.8 nM | –
16 | C[C@H]1[C@H](O)CN1c1nc(-c2ccc3c(c2)OCCNC32COC2)c2c(n1)C(F)(F)CC2 [Example 521, (2S,3R)-1-(4-(3,4-dihydro-2H-spiro[benzo[f][1,4]oxazepine-5,3′-oxetan]-8-yl)-7,7-difluoro-6,7-dihydro-5H-cyclopenta[d]pyrimidin-2-yl)-2-methylazetidin-3-ol] | 9.8 nM | > 100 nM | 68.4 nM | –
17 | C[C@H]1CCN1c1nc2c(c(-c3ccc(Cl)c(S(N)(=O)=O)c3)n1)CCC2 [Example 522, (S)-2-chloro-5-(2-(2-methylazetidin-1-yl)-6,7-dihydro-5H-cyclopenta[d]pyrimidin-4-yl)benzenesulfonamide] | 44.5 nM | 454 nM | 53.3 nM | –
18 | C[C@H]1[C@H](F)CN1c1nc(-c2ccc3c(c2)OC[C@@H]3NS(C)(=O)=O)c2c(n1)C(F)(F)CC2 [Example 523, N—((R)-6-(7,7-difluoro-2-((2S,3R)-3-fluoro-2-methylazetidin-1-yl)-6,7-dihydro-5H-cyclopenta[d]pyrimidin-4-yl)-2,3-dihydrobenzofuran-3-yl)methanesulfonamide] | 0.7 nM | 51.3 nM | 5.1 nM | –
